In general, Ki refers to the equilibrium dissociation constant of an inhibitor or competing ligand from its target. A lower Ki goes with higher affinity. Usually Kb stands for the equilibrium dissociation constant of an antagonist, usually derived from a functional assay. Higher therefore signals lower antagonist affinity.

Each structure is given as a SMILES string.

Drawing on patent publication US8048884B2, “Substituted piperazinyl pyrazines and pyridines as 5-HT7 receptor antagonists” (Eli Lilly and Company, priority 2007, dated 2011), this text covers Ki, antagonist character and Kb for one molecule.

One assay deals with T1, 5-HT1B (Homo sapiens, UniProt P28222).
T1 construct: expressed in transfected cells
The experiment in a line: Radioligand binding assay, 5-HT1B subtype. As to the method:
(§1) [^3H] […] The reactions are incubated at room temperature for 3 hr. and then counted in a Trilux Microbeta™ scintillation counter to detect receptor-bound radioligand. Binding data is analyzed by computer-assisted 4 parameter fit analysis (ID Business Solutions Ltd, Guildford, Surrey, UK). […]
(§2) Affinity for other serotonin receptor subtypes as well as for alpha 1 & 2 adrenergic receptors can readily be determined by modification of the above described radioligand receptor binding assay using membranes derived from cells stably expressing the desired receptor subtype including the 5-HT1A, 5-HT1B, and 5-HT1D subtypes, as well as the 5-HT2A, 5-HT2B, 5-HT2C, 5-HT4, 5-HT5, and 5-HT6 receptor subtypes. […]

Another assay deals with T2, 5-HT1D (Homo sapiens, UniProt P28221).
T2 construct: expressed in transfected cells
The experiment in a line: Radioligand binding assay, 5-HT1D subtype. As to the method:
as §1, §2

Another assay concerns the target T3, 5-HT2B (Homo sapiens, UniProt P41595).
T3 construct: expressed in transfected cells
The experiment in a line: Radioligand binding assay, 5-HT2B subtype. The procedure: as §1, §2

A further assay deals with T4, 5-HT4 (Homo sapiens, UniProt Q13639).
T4 construct: expressed in transfected cells
The experiment in a line: Radioligand binding assay, 5-HT4 subtype. As to the method: as §1, §2

In the next assay the target is T5, 5-HT6 (Homo sapiens, UniProt P50406).
T5 construct: expressed in transfected cells
Put plainly: Radioligand binding assay, 5-HT6 subtype. As to the method:
as §1, §2

A further assay deals with alpha 2 adrenergic. The experiment in a line: Radioligand binding assay, alpha 2 adrenergic. As to the method: as §1, §2
The target of another assay is T6, 5-HT7 receptor (Homo sapiens, UniProt P34969).
T6 construct: expressed in transfected cells
The experiment in a line: Functional antagonist assay: measurement of cAMP formation. The conditions noted are these: 5-HT7-expressing AV-12 cells. Format: cell-based. As to the method:
For cAMP functional assays, the 5-HT7-expressing cells from above are grown in 150 cm^2 flasks and processed essentially as follows. The media is aspirated from the flasks and cells are washed with 1 mL PBS. The cells are released from monolayer with enzyme free cell dissociation solution (Specialtymedia CAT#S-004-B, www.Chemicon.com) and resuspended in complete media. A sample of the cells is counted and the remainder is centrifuged as above for 3 min. The resulting cell pellet is resuspended in PBS at a concentration of 1×10^6 cells per mL and used directly in the cAMP assay as described.
The 5-HT7 receptor is functionally coupled to a G-protein as measured by the ability of serotonin and serotonergic drugs to stimulate cAMP production in CHO cells transfected with the 5-HT7 receptor. (Ruat, et al., Proceedings of the National Academy of Sciences (USA), 90:8547-8551, 1993.) Accordingly, functional receptor activity can be measured by measuring adenylate cyclase activity using a commercially available cell-based, homogeneous, time resolved fluorescence assay kit, as for example the kit produced by Cisbio-US, Inc. (Bedford, Mass.). Essentially, and using the protocol and reagents provided by the manufacturer, approximately 20,000 human 5-HT7 receptor-expressing AV-12 cells (as described above) are used with test compound dose concentrations in the range described for the binding assay. […] A cAMP standard curve is also run in every experiment. After the assay plates are read in an Envision™ instrument (Perkin-Elmer, Wellesley Mass.), the data are normalized to the standard curve and converted to percent inhibition for data analysis as described above for the receptor binding assay results. The Kb (nM) is calculated as a measure of the antagonist potency of the compound. Preferred compounds are those having percent inhibition>75%. Still other preferred compounds are those having Kb<50 nM.
A general note: cAMP levels reflect the balance of adenylyl cyclase and phosphodiesterase activity.

T6 sequence (P34969 whole entry): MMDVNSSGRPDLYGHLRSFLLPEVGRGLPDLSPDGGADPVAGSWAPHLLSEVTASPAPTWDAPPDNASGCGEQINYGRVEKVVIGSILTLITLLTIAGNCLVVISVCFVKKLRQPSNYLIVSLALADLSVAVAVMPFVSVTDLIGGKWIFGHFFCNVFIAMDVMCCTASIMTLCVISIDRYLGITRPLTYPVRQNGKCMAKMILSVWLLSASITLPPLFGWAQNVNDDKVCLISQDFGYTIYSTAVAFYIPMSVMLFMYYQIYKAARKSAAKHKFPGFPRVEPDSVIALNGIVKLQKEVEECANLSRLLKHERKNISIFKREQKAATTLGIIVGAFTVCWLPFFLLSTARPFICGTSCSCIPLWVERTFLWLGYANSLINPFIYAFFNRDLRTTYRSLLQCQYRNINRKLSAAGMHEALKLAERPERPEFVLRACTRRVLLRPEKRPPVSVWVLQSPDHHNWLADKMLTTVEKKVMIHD
T4 sequence (Q13639 whole entry, species assumed): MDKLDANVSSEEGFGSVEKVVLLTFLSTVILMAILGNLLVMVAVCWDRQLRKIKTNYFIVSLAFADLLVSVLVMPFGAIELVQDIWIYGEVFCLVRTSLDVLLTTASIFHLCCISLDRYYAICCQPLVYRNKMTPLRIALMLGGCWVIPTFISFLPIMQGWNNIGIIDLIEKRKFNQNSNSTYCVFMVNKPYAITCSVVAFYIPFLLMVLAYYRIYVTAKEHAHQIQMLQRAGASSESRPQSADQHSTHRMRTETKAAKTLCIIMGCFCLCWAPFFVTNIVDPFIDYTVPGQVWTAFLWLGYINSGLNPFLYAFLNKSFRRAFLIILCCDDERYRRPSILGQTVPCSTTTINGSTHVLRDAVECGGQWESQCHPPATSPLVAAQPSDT
T5 sequence (P50406 whole entry, species assumed): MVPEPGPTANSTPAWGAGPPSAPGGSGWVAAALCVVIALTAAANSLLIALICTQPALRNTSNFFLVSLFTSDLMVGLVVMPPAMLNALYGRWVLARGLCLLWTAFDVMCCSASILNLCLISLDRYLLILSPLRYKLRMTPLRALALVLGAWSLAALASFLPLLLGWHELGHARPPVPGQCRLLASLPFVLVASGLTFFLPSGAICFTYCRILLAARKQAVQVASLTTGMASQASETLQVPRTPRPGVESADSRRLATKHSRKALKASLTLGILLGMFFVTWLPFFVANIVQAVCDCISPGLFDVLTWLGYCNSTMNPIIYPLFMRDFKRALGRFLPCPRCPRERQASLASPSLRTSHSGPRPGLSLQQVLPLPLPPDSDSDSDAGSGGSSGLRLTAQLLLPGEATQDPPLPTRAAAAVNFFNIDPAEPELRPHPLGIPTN
T2 sequence (P28221 whole entry, species assumed): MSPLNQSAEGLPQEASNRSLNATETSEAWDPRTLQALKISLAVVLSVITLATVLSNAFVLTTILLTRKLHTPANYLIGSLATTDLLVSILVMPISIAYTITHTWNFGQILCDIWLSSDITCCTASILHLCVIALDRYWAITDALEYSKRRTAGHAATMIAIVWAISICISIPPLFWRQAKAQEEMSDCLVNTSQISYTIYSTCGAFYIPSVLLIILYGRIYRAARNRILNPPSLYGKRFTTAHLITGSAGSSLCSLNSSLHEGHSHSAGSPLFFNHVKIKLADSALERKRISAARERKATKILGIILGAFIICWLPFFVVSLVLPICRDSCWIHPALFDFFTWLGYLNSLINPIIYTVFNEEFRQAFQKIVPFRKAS
T3 sequence (P41595 whole entry, species assumed): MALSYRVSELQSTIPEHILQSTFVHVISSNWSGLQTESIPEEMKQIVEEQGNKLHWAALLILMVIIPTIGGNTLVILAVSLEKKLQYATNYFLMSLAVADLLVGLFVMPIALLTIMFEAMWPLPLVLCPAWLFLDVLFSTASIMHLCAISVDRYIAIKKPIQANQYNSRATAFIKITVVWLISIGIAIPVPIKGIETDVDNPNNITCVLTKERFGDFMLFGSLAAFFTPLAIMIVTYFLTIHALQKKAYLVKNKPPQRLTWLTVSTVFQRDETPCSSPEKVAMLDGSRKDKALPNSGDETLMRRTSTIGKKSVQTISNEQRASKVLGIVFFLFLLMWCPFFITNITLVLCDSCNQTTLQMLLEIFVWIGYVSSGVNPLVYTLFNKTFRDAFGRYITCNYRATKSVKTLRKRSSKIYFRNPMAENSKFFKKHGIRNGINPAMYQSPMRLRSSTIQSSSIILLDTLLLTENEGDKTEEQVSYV
T1 sequence (P28222 whole entry, species assumed): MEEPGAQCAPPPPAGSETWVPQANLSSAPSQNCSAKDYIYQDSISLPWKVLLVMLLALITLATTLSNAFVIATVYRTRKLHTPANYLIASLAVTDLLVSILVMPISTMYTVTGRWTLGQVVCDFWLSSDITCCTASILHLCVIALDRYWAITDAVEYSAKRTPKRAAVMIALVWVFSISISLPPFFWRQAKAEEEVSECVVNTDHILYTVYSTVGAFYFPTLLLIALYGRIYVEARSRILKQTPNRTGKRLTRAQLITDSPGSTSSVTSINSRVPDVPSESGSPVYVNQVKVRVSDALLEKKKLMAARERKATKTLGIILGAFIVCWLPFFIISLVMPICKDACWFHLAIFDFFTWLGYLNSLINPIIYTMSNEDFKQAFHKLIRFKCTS

For `COCc1ccc(-c2nccnc2N2CCN(CCN(C)S(=O)(=O)c3cnn(C)c3)CC2)cc1.Cl` [Example 25, 1-Methyl-1H-pyrazole-4-sulfonic acid {2-[3′-(4-methoxymethyl-phenyl)-2,3,5,6-tetrahydro-[1,2′]bipyrazinyl-4-yl]-ethyl}-methyl-amide hydrochloride], the inhibition constant Ki was 3.24 µM at 5-HT1B; 1.27 µM on 5-HT1D; over 6.81 µM at 5-HT2B; over 4.12 µM at 5-HT4; over 5.83 µM on 5-HT6; over 5.29 µM at alpha 2 adrenergic. Moreover, the antagonist character entry at 5-HT7 receptor is “full antagonists”. At 5-HT7 receptor (antagonist potency), this molecule gave a Kb of about 0.0085 µM.
